Primed or numbered codes have the meaning given here. 5‑FAM = 5-FAM fluorescein label; Npys′ = not defined here
Legend:
live cells = assay: Live-cell fluorescence microscopy of cell uptake and nuclear labeling, cell type not given (FIG. 4, 6, 7, 9); type: cell-based
Excerpt: A CPP-cargo construct (comprising a cell-penetrating moiety and a nuclear targeting moiety) was synthesized and conjugated via reactive 3-nitro-2-pyridinesulfenyl cysteine residues, and then purified by HPLC. When exogenously supplemented into cell staining media, these peptide fusions are designed to penetrate living cells and cleave into two subunits within the reducing environment of cell cytoplasm, thereby releasing a FITC-NLS peptide that is actively trafficked into the cell nucleus.

MRC5 cells = assay: Live-cell fluorescence microscopy of cell uptake and nuclear labeling by CPP-NLS-FAM fusion peptides; type: cell-based, human
Excerpt: (§1) A CPP-cargo construct (comprising a cell-penetrating moiety and a nuclear targeting moiety) was synthesized and conjugated via reactive 3-nitro-2-pyridinesulfenyl cysteine residues, and then purified by HPLC. When exogenously supplemented into cell staining media, these peptide fusions are designed to penetrate living cells and cleave into two subunits within the reducing environment of cell cytoplasm, thereby releasing a FITC-NLS peptide that is actively trafficked into the cell nucleus. Thus, the fusion peptide is convenient for discriminating nuclei by live-cell microscopy.
(§2) Live human MRC5 cells and mammalian CHO cells were incubated with fusion proteins as depicted in the flow chart in FIG. 3, steps 1 through 9. […] The FITC-NLS/pVEC fusion was constructed by independently synthesizing a FITC-NLS-Npys peptide and a modified pVEC sequence containing a terminal cysteine residue: […]

CHO cells = assay: as above; type: cell-based; conditions: mammalian CHO cells, compared with other tested cell-penetrating sequences, FIG. 4
Excerpt: as §1, §2

[1] = in the presence of excess monovalent pVEC (~132-156 μg/well), FIG. 7

Substance	effect of monovalent pVEC on cell uptake (live cells; higher amounts of monovalent pVEC (~132 μg/well), FIG. 9)	cell-uptake efficiency and nuclear labeling (MRC5 cells; live human MRC5 cells, compared with other tested cell-penetrating sequences, FIG. 4)	effect of monovalent pVEC on cellular uptake (MRC5 cells; monovalent pVEC ~44 μg/well, MRC5 cells, FIG. 8)	cell uptake and nuclear targeting (live cells; [1])	reduction in fusion peptide needed for equal or better cell uptake and nuclear labeling (live cells; [1])	delivery of the NLS-FAM cargo moiety into cells (live cells; various cell types, FIG. 4 legend)	cell-uptake efficiency and nuclear labeling (CHO cells)
5-FAM-GGPKKKRKVGGC(N-Pys)-OH ({5‑FAM}-GGPKKKRKVGGC(Npys′)-OH) [FITC-NLS-Npys]	enhanced cell uptake	–	–	–	–	–	–
5-FAM-GGPKKKRKVGGCCGGKSHAHAQKRIRRRLIILL (not fully specified; 5-FAM; disulfide-linked) [FAM-NLS-C-C-pVEC, disulfide-linked fusion of Fluorescein-NLS-Npys peptide and modified pVEC peptide]	–	highest	enhanced	enhanced	at least 8 fold	high efficiency	highest
